Experiments:
CFTR [1] = assay: Colabeling: effect of LZQ on SPQ fluorescence / CFTR-mediated Cl^- transport; type: cell-based; conditions: Cl^-/NO3^- exchange; SPQ alone vs. colabeled with LZQ
Method: Fluorescence microscopy. Fluorescence microscopy measurements were performed as described previously (Chao et al., 1989). Briefly, coverglasses were mounted in a 0.5 ml perfusion chamber in which the cell-free glass surface made contact with an oil immersion objective (Nikon ×40 magnification, numerical aperture[NA] 1.3). Cell fluorescence was excited at 365±10 nm (SPQ) or 420 nm±10 nm (LZQ and LMQ). Emitted fluorescence was detected by a photomultiplier in a Nikon inverted epifluorescence microscope using a 410 nm dichroic mirror and 420 nm barrier filter (SPQ) or a 455 nm dichroic mirror and 500 nm barrier filter (LZQ). For cells colabeled with SPQ and LZQ, SPQ fluorescence was excited at 365±10 nm and detected using a 410 nm dichroic mirror and 455±30 nm interference filter. Confocal fluorescence micrographs were obtained using a Nipkow wheel confocal microscope and cooled CCD camera detector using a ×60 oil immersion objective (Nikon, NA 1.4). […]
Transport measurements. […] For fluorescence microscopy, glass coverslips were then mounted in a perfusion chamber (flow ~2 ml/min) in which solutions were exchanged using a 4-way valve. For microplate reader measurements, cells in 96-well plates were bathed in […] of the `1st buffer` (see Table 3) and […] of the Cl^- -containing, I^- -free solution was injected into the well to drive Cl^- /I^- exchange (protocol 1). […]

cells [2] = assay: Fluorescence lifetime in cells (frequency-domain microfluorimetry); type: cell-based
Method: Time resolved fluorescence measurements. Fluorescence lifetime and anisotropy decay measurements were carried out in the frequency domain by cuvette fluorimetry using a Fourier transform fluorimeter (48000 MHF, SLM Instruments, Urbana, Ill.) or by fluorescence microscopy using epifluorescence microscope optics in place of the cuvette compartment (Verkman et al., 1991). For microscopy measurements, impulse-modulated vertically polarized light (442 nm, He--Cd laser 35 mwatts) was reflected onto the sample by a 510 nm dichroic mirror and objective lens; emitted fluorescence was filtered by a 515 nm barrier filter and passed through a rotatable analyzing calcite polarizer. […]
Analysis of lifetime and time-resolved anisotropy was performed by a comparative approach. […] Median phase and modulation values for paired data were analyzed by nonlinear least-squares for determination of lifetimes and rotational correlation times.
A calibration study was done to determine the intracellular sensitivity of LZQ to I^-. […] LZQ fluorescence changed reversibly in response to changes in solution I^-. […] Fluorescence lifetime analysis was done to determine whether LZQ fluorescence is quenched in cells by substances other than I^-. Nanosecond lifetimes were measured by frequency-domain microfluorimetry. […]

cells [3] = assay: Time-resolved anisotropy in cells; type: cell-based
Method: Time resolved fluorescence measurements. Fluorescence lifetime and anisotropy decay measurements were carried out in the frequency domain by cuvette fluorimetry using a Fourier transform fluorimeter (48000 MHF, SLM Instruments, Urbana, Ill.) or by fluorescence microscopy using epifluorescence microscope optics in place of the cuvette compartment (Verkman et al., 1991). For microscopy measurements, impulse-modulated vertically polarized light (442 nm, He--Cd laser 35 mwatts) was reflected onto the sample by a 510 nm dichroic mirror and objective lens; emitted fluorescence was filtered by a 515 nm barrier filter and passed through a rotatable analyzing calcite polarizer. In some experiments, a biconcave lens was introduced just in front of the dichroic mirror to diverge beam diameter in the focal plane to […].
Analysis of lifetime and time-resolved anisotropy was performed by a comparative approach. Generally six pairs of measurements (each acquisition 8 s) were obtained, comparing sample and reference (fluorescein in 0.1 N NaOH, lifetime 4.0 ns) for measurement of lifetime, and parallel and perpendicular orientations of the emission polarizer for measurement of anisotropy decay. The phase-modulation data consisted of phase angles and modulation ratios at 40 discrete, equally spaced modulation frequencies (5-200 MHz). The analyzing polarizer was positioned at the magic angle for lifetime measurements. Additional details of the data acquisition and analysis routines were described previously (Verkman et al., 1991). Median phase and modulation values for paired data were analyzed by nonlinear least-squares for determination of lifetimes and rotational correlation times.
Time-resolved anisotropy was measured to quantify intracellular LZQ binding. In water, LZQ rotated freely with a single-component rotational correlation time of 121±3 ps (n=3). For LZQ in cells, a plot of differential phase and modulation amplitude ratio indicated a two-component anisotropy decay model with a major component (fractional amplitude 0.90-0.94) of 144±10 ps, similar to that in water.

[4] = In vitro fluorescence quenching by I^- (Stern-Volmer); type: physicochemical
Method: Computations. In vitro fluorescence quenching studies were carried out at peak excitation and emission wavelengths. Microliter aliquots of the sodium salt of the quenching anion (1 M) were added to indicator solution in 5 mM sodium phosphate (pH 7.2, unless indicated otherwise). Fluorescence intensities in the absence (Fo) and presence (F) of quencher anion ([Q]) were measured to give the Stem-Volmer constant (Kq) as defined by: Fo /F=1+Kq [Q].

CFTR [5] = assay: I^-/NO3^- exchange in forskolin-stimulated CFTR-expressing cells; type: cell-based
Method: Transport measurements. Cells were labeled with LZQ or SPQ by hypotonic shock (loading buffer/water 1:1 containing 2 mM LZQ or 7.5 mM SPQ) for 5 min at room temperature or by overnight incubation with indicators in the cell culture medium. Extracellular indicator was removed by washing just prior to measurements. For fluorescence microscopy, glass coverslips were then mounted in a perfusion chamber (flow ~2 ml/min) in which solutions were exchanged using a 4-way valve. For microplate reader measurements, cells in 96-well plates were bathed in […] of the `1st buffer` (see Table 3) and […] of the Cl^- -containing, I^- -free solution was injected into the well to drive Cl^- /I^- exchange (protocol 1). For stimulation of CFTR using protocol 2, […] of a 1:8 mixture of the 1st buffer and the 2nd buffer containing […] forskolin, 2 mM CPT-cAMP and […] IBMX was added.
For determination of the absolute I^- transport rates, the time course of intracellular [I^- ] was computed from the time course of SPQ or LZQ fluorescence using the modified Stem-Volmer equation [I^- ]={([Fo -Fb ]/[F-Fb ])-1}/KI, where Fo is fluorescence intensity in the absence of I^-, Fb is background fluorescence of unlabeled cells, and KI the intracellular quenching constant for I^- (see Results). I^- transport rates were calculated from the slope of a linear regression of the first 10 time points after changing perfusate composition.
The utility of LZQ for functional measurement of CFTR expression was tested. […] A comparison of data obtained for cells loaded with LZQ and SPQ initially loaded with I^-, followed by replacement of I^- with NO3^- in the absence of forskolin, followed by addition of forskolin was also performed. The initial rates of forskolin-stimulated I^- efflux (SPQ: 0.09±0.02 mM/s; LZQ: 0.08±0.01 mM/s) were similar. Measurements of Cl^- /NO3^- exchange were also carried out by measuring SPQ fluorescence using cells labeled with SPQ alone vs. cells colabeled with SPQ and LZQ.

[6] = Stopped-flow response to addition and removal of I^-; type: physicochemical

fluorescence lifetime in cells (cells [2]; in the absence of I^-, n=4): 6.5±0.3 ns | fractional amplitude of major component (cells [3]; in cells): 0.90-0.94 | rotational correlation time, major component (cells [3]; in cells, two-component model): 144±10 ps | effect of pH on I^- sensitivity ([4]; pH 4.5-8): not affected
SMILES: [O-]c1nc2c(N[C@@H]3O[C@H](CO)[C@@H](O)[C@H]3O)ncnc2[n+]2ccccc12 [I, 4-(β-D-ribofuranosylamino)-pyrido [2,1-h] pteridin-11-ium-5-olate]
effect on time course of SPQ fluorescence / CFTR-mediated Cl^- transport (CFTR [1]): did not affect the time course of SPQ fluorescence | quenching by intracellular components (cells [2]): quenched little by intracellular components | binding to intracellular components (cells [3]): negligible binding | Ksv (I^-), Stern Volmer quenching constant ([4]; Table 4): 60 M⁻¹ | Stern-Volmer constant, quenching by I^- ([4]; in water (or saline)): 60 M⁻¹ | initial rate of forskolin-stimulated I^- efflux (CFTR [5]; I^- replaced by NO3^- without forskolin, then forskolin added): 0.08 ± 0.01 mM/s | computed I^- efflux rate (CFTR [5]; forskolin-stimulated CFTR-expressing cells, I^-/NO3^- exchange): 0.09 ± 0.03 mM/s | computed I^- influx rate (CFTR [5]; forskolin-stimulated CFTR-expressing cells, I^-/NO3^- exchange, S.E., n=3): 0.25 ± 0.01 mM/s | response time to rapid addition and removal of I^- [6]: < 1 ms

Reference: patent publication US6201116A, “Halide indicators” (The Regents of the University of California, priority 1999, dated 2001)
